Test results: US10100076B2, “Modified nucleosides for the treatment of viral infections and abnormal cellular proliferation” (priority 2000, dated 2018)

Tests used:
[1] = test system: rDNA (host DNA); assay: rDNA ΔCt in Huh7 replicon cells (effect on cellular DNA polymerases); conditions: Table 25, average of N
Text: In another typical setting, a compound might reduce the host RNA polymerase activity, but not the host DNA polymerase activity. Therefore, quantification of rDNA or beta-actin DNA (or any other host DNA fragment) and comparison with DNA levels of the no-drug control is a relative measurement of the inhibitory effect of the test compound on cellular DNA polymerases.
With the availability of both the HCV ΔCt data and the rDNA ΔCt, a specificity parameter can be introduced. This parameter is obtained by subtracting both ΔCt values from each other.

[2] = test system: HCV replicon; assay: HCV replicon system in Huh7 cells, replicon RNA by Q-RT-PCR (HCV ΔCt, ΔΔCt); assay type: cell-based, hepatitis C virus; conditions: for Ave. ΔΔCt: HCV RNA ΔCt minus rRNA ΔCt; for Ave. HCV RNA ΔCt: HCV replicon in Huh7 cells; for average ΔΔCt: HCV RNA ΔCt minus rDNA ΔCt
[3] = test system: rRNA (host RNA polymerase I product); assay: rRNA ΔCt in Huh7 replicon cells (effect on host RNA polymerases); conditions: Table 24, average of n
Text: In a typical setting, a compound might reduce both the host RNA polymerase activity and the replicon-encoded polymerase activity. Therefore, quantification of rRNA (or any other host RNA polymerase I product) or beta-actin mRNA (or any other host RNA polymerase II) and comparison with RNA levels of the no-drug control is a relative measurement of the effect of the test compound on host RNA polymerases.
With the availability of both the HCV ΔCt data and the rRNA ΔCt, a specificity parameter can be introduced. This parameter is obtained by subtracting both ΔCt values from each other.
Note: test concentration or dose not given here.

| SMILES | Ave. rDNA ΔCt [1] | Ave. ΔΔCt ([2]; Table 24) | Ave. HCV RNA ΔCt ([2]; Table 24, average of n) | average ΔΔCt ([2]; Table 25) | Ave. HCV RNA ΔCt ([2]; Table 25, average of N) | Ave. rRNA ΔCt [3] |
| --- | --- | --- | --- | --- | --- | --- |
| OC[C@@H]1C=C(F)[C@H](n2cnc3c(Cl)ncnc32)O1 [β-D-FA] | 1.92 | 1.44 | 3.80 | 0.78 | 3.80 | 3.58 |
| OC[C@@H]1O[C@H](n2cnc3c(Cl)ncnc32)CS1 [β-L-KA] | 0.42 | −0.74 | 4.10 | 3.69 | 4.10 | 4.84 |
| CC(=O)Nc1ccn([C@@H]2O[C@H](CO)[C@@H](O)[C@@H]2O)c(=O)n1 [β-D-BO] |  | 1.57 | 4.52 |  |  | 2.95 |
| Nc1cn([C@@H]2O[C@H](CO)[C@@H](O)[C@H]2O)c(=O)nc1N [β-D-BJ] | 0.81 | 1.44 | 5.06 | 3.53 | 4.34 | 3.62 |
| Nc1nc(F)nc2c1ncn2[C@@H]1C=C[C@H](CO)O1 [β-L-FC] | 1.00 | 0.42 | 5.55 | 3.41 | 4.41 | 5.13 |
| NC(=O)c1ncn([C@@H]2O[C@H](CO)[C@@H](O)[C@H]2O)n1 [RIB, ribavirin, reference compound] |  | 0.78 | 3.13 |  |  | 2.35 |
| Nc1nc(=O)n([C@@H]2O[C@H](CO)[C@@H](O)[C@H]2O)cc1F [β-D-AQ] | 1.78 | 1.22 | 4.45 | 2.73 | 4.75 | 3.22 |
| Nc1ccn([C@@H]2O[C@H](CO)[C@@H](O)[C@@H]2Cl)c(=O)n1 [β-D-AN] | 2.53 | 1.22 | 3.33 | 1.88 | 3.86 | 2.11 |
| O=C(Nc1nc(=O)n([C@H]2C=C[C@@H](CO)O2)cc1F)c1ccccc1[N+](=O)[O-] [β-D-EB] | 0.96 | 1.90 | 3.33 | 2.37 | 3.33 | 1.42 |
| N=c1nc2c(c[nH]1)[C@@H]1O[C@H](CO)[C@@H](O)[C@@H]1O2 [β-D-TA] | 3.07 | 0.69 | 4.00 | 0.93 | 4.00 | 3.31 |
| Cc1ccc(S(=O)(=O)O[C@@H]2[C@@H](O)[C@H](n3cc(I)c(N)nc3=O)O[C@@H]2CO)cc1 [β-D-BF] | 2.04 | 1.68 | 4.37 | 3.28 | 5.27 | 2.69 |
| Nc1nc(=O)n([C@@H]2C=C(CO)[C@@H](O)[C@H]2O)cc1F [β-D-HB] | 1.19 | 1.30 | 2.94 | 0.40 | 1.90 | 1.65 |
| Nc1ccn([C@@H]2O[C@H](CO)[C@H](Br)[C@H]2O)c(=O)n1 [β-D-AI] | −0.96 | 0.48 | 2.93 | 4.55 | 3.76 | 2.43 |
| O=c1nc2n(cc1F)[C@@H]1O[C@H](CO2)[C@@H](O)[C@H]1O [β-D-LA] | 1.56 | 0.89 | 3.85 | 1.98 | 3.54 | 4.10 |
| CC1(CO)CO[C@@H](n2cnc3c(N)nc(F)nc32)C1 (stereo partly drawn) [β-D-VA] |  | 1.39 | 5.56 |  |  | 4.17 |
